Holding throughout (assay): SPR
Holding throughout (assay type): binding

Test [1] has as its target T1, P53 (Homo sapiens, UniProt P04637).
Test [2] concerns the target T1, P53. The source holds these as a separate data set.
In test [3] the target is T1, P53. The source holds these as a separate data set.

The values that follow come from PMC7332671 (Acta Pharmaceutica Sinica. B, 2020).

One may read the Kd as the free concentration of one partner at which half of the binding sites on the other are occupied at equilibrium, for simple one-to-one binding.

Read-outs that look alike come from different tables or passages of the source.

T1 sequence (P04637 94-312): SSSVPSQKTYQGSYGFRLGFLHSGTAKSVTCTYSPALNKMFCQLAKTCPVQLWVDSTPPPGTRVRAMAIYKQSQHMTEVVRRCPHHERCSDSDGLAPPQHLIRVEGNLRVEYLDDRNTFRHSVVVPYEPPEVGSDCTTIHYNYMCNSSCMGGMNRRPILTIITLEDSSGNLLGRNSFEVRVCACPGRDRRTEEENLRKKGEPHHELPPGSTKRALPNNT

Regarding 20(S)-Ro, the affinity at P53 [1], expressed as Kd, was 10.2 µM.

As for `CC(C)=CCC[C@](C)(O)[C@H]1CC[C@]2(C)[C@@H]1[C@H](O)C[C@@H]1[C@@]3(C)CC[C@H](O)C(C)(C)[C@@H]3CC[C@]12C` [20(S)-PPD], binding on P53 [1] was put at a Kd of 41.1 µM. This Kd lies about 4-fold higher than the previous one.

Take `CC(C)=CCC[C@](C)(O)[C@H]1CC[C@]2(C)[C@@H]1[C@H](O)C[C@@H]1[C@@]3(C)CC[C@H](O)C(C)(C)[C@@H]3[C@@H](O)C[C@]12C` [(S)-PPT, 20(S)-Protopanaxatriol]: the Kd at P53 [2] came out at 6.63 µM.

Regarding `CCn1c2ccccc2c2cc(CNC)ccc21` [PhiKan083], on P53 [3], the Kd stood at 122 µM.
